From ChEMBL document CHEMBL3407452, “Linear and branched alkyl-esters and amides of gallic acid and other (mono-, di- and tri-) hydroxy benzoyl derivatives as promising anti-HCV inhibitors” (Eur J Med Chem, 2015)
Activity calls are given as the source filed them. The rule behind the calls is not given here.

Assays:
[1] = system: Human immunodeficiency virus 2; assay: Antiviral activity against HIV2 ROD infected in human CEM cells assessed as reduction in virus-induced cytopathicity after 4 to 5 days by microscopy based syncytium cell formation assay; type: functional, organism-based, ISOLATE ROD, CCRF-CEM; conditions: Human immunodeficiency virus 2, ISOLATE ROD, CCRF-CEM; read-out: EC50
[2] = Cytotoxicity against human Huh5-2 cells after 72 hrs by MTS assay; type: cell-based, Huh-5-2
[3] = system: Hepatitis C virus; assay: Antiviral activity against HCV genotype 1b I389luc-ubi-neo/NS3-3'/5.1 replicons infected in human Huh5-2 HCV subgenomic replicon-containing cells assessed as reduction in virus replication after 3 days by luciferase reporter gene assay; type: functional, Hepacivirus hominis; conditions: Hepatitis C virus, genotype 1b, Huh-5-2, 72 h; for EC50: read-out: EC50
[4] = system: Felid alphaherpesvirus 1; assay: Antiviral activity against feline herpesvirus; type: functional, organism-based
[5] = system: Influenza A virus; assay: Antiviral activity against influenza A virus (H1N1); type: functional, organism-based
[6] = system: Punta Toro virus; assay: Antiviral activity against punta toro virus; type: functional, organism-based
[7] = system: Chikungunya virus; assay: Antiviral activity against chikungunya virus; type: functional
[8] = system: Reovirus sp.; assay: Antiviral activity against reovirus; type: functional, organism-based
[9] = system: Human immunodeficiency virus 1; assay: Antiviral activity against HIV1 3B infected in human CEM cells assessed as reduction in virus-induced cytopathicity after 4 to 5 days by microscopy based syncytium cell formation assay; type: functional, organism-based, CCRF-CEM; conditions: Human immunodeficiency virus 1, 3B, CCRF-CEM; read-out: EC50
[10] = system: Vesicular stomatitis virus; assay: Antiviral activity against vesicular stomatitis virus; type: functional, organism-based
[11] = Selectivity index, ratio of CC50 for human CEM cells to EC50 for HIV1 3B; type: toxicity, cell-based, CCRF-CEM; conditions: read-out: Ratio CC50/EC50
[12] = system: Human respirovirus 3; assay: Antiviral activity against human parainfluenza virus 3; type: functional, organism-based
[13] = system: Sindbis virus; assay: Antiviral activity against sindbis virus; type: functional, organism-based
[14] = system: Influenza A virus H3N2; assay: Antiviral activity against influenza A virus H3N2; type: functional, organism-based
[15] = system: Coxsackievirus B4; assay: Antiviral activity against human coxsackievirus B4; type: functional, organism-based
[16] = system: Feline coronavirus; assay: Antiviral activity against feline coronavirus; type: functional, organism-based
[17] = Cytotoxicity against human CEM cells assessed as inhibition of cell proliferation; type: cell-based; conditions: CEM cells (CCRF-CEM)
[18] = system: Respiratory syncytial virus; assay: Antiviral activity against RSV; type: functional, organism-based
[19] = system: Vaccinia virus; assay: Antiviral activity against vaccinia virus; type: functional, organism-based; conditions: Orthopoxvirus vaccinia

Row | SMILES | EC50 [1] | CC50 at 72 h [2] | EC90 [3] | EC50 [3] | Activity [4] | Activity [5] | Activity [6] | Activity [7] | Activity [8] | EC50 [9] | Activity [10] | selectivity ratio [11] | Activity [12] | Activity [13] | Activity [14] | Activity [15] | Activity [16] | CC50 [17] | Activity [18] | Activity [19]
1 | O=C(NCCN(CCNC(=O)c1ccc(O)c(O)c1O)CCNC(=O)c1ccc(O)c(O)c1O)c1ccc(O)c(O)c1O | > 10 µM | > 3.7 µM | > 5.5 µM | > 5.5 µM | inactive | inactive | inactive | inactive | inactive | 2.5 µM | inactive | 10 | inactive | inactive | inactive | inactive | inactive | 28 µM | inactive | inactive
2 | O=C(OCCCCCCCCOC(=O)c1cc(O)c(O)c(O)c1)c1cc(O)c(O)c(O)c1 | > 10 µM | 80 µM | 55 µM | 17 µM | inactive | inactive | inactive | inactive | inactive | > 10 µM | inactive | – | inactive | inactive | inactive | inactive | inactive | 13 µM | inactive | inactive
3 | CCCCCOC(=O)c1cc(O)c(O)c(O)c1 [PENTYL GALLATE] | ≥ 10 µM | > 50 µM | > 50 µM | 14 µM | inactive | inactive | inactive | inactive | inactive | 14 µM | inactive | – | inactive | inactive | inactive | inactive | inactive | 47 µM | inactive | inactive
4 | O=C(NCCCCCCCCCCCCNC(=O)c1ccccc1O)c1ccccc1O | > 250 µM | > 6.7 µM | > 6.7 µM | 4.7 µM | inactive | inactive | inactive | inactive | inactive | > 250 µM | inactive | – | inactive | inactive | inactive | inactive | inactive | 248 µM | inactive | inactive
5 | CCCCOC(=O)c1cc(O)c(O)c(O)c1 [BUTYL GALLATE] | > 10 µM | 29 µM | > 29 µM | 13 µM | inactive | inactive | inactive | inactive | inactive | > 10 µM | inactive | – | inactive | inactive | inactive | inactive | inactive | 55 µM | inactive | inactive
6 | CCCCCCOC(=O)c1cc(O)c(O)c(O)c1 [HEXYL GALLATE] | 6.6 µM | > 50 µM | > 50 µM | 9 µM | inactive | inactive | inactive | inactive | inactive | 5.4 µM | inactive | – | inactive | inactive | inactive | inactive | inactive | 14 µM | inactive | inactive
7 | O=C(NCCCOCCOCCOCCCNC(=O)c1ccc(O)c(O)c1O)c1ccc(O)c(O)c1O | > 50 µM | 49 µM | – | 28 µM | inactive | inactive | inactive | inactive | inactive | > 50 µM | inactive | – | inactive | inactive | inactive | inactive | inactive | 81 µM | inactive | inactive
